Test results reported in publication PMC11940194, “Synthesis, Antiproliferative Activity, and ADME Profiling of Novel Racemic and Optically Pure Aryl-Substituted Purines and Purine Bioisosteres” (Biomolecules, 2025).
Read-outs that look alike come from different tables or passages of the source.

Assays:
[1] = test system: normal skin fibroblasts (HFF-1); set-up: method as in PMID 29271659; conditions: toxicity to normal cells; read-out: IC50 normal cells of analog without linker; cited from earlier work
[2] = test system: MCF-7, CFPAC-1, HT-29, HepG2 tumor cell lines and HFF-1 fibroblasts; assay: Antiproliferative activity, whole cell line panel; type: cell-based, human; conditions: tested cell lines
Description: The human ATCC tumor cell lines breast adenocarcinoma (MCF7), colorectal carcinoma (HT-29), pancreatic ductal adenocarcinoma (CFPAC-1), hepatocellular carcinoma (HepG2), and normal skin fibroblasts (HFF) derived from ATCC (American Type Culture Collection) were cultured in Dulbecco’s Modified Eagle Medium (DMEM) or Minimum Essential Medium (MEM) supplemented with 10% fetal bovine serum (FBS), 2 mM L-glutamine, 100 U/mL penicillin, and 100 µg/mL streptomycin (Lonza, Basel, Switzerland) in a humidified atmosphere with 5% CO2 at 37 °C. For the experiment, carcinoma cell lines and normal human cell lines were seeded in 96-well microtiter plates at a density of 3000 cells per well and 5000 cells per well, respectively, depending on the doubling time of the specific cell line. The test substances were then added at fivefold, tenfold dilutions (0.01 to 100 µM), freshly prepared in the growth medium on the day of testing, and incubated for a further 72 h. After 72 h of incubation, the growth rate of the cells was determined using the MTT assay according to the manufacturer’s guidelines. […] The IC50 values were calculated from the dose–response curves using linear regression analysis. The experiment was performed in tetraplicates in two individual experiments.
Newly synthesized compounds were evaluated for their cytotoxic activity in vitro against four human cancer cell lines, including human breast adenocarcinoma (MCF-7), ductal pancreatic adenocarcinoma (CFPAC-1), colorectal carcinoma (HT-29), and hepatocellular carcinoma (HepG2), as well as on non-cancerous skin fibroblasts (HFF-1), to check for non-specific toxicity. Furthermore, 5-Fluorouracil (5-FU) was used as a reference drug. The results are expressed as 50% inhibitory concentration (IC50) values and are listed in Table 2, Table 3, Table 4 and Table 5.

[3] = test system: breast adenocarcinoma (MCF7) cells; assay: Antiproliferative MTT assay, MCF-7; type: cell-based, human; conditions: Homo sapiens, MCF7; 72 h incubation, MTT; mean ± SD
How it was run: (§1)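 MTT read-out after 72 h exposure to compounds (0.01–100 µM, fivefold/tenfold dilutions in growth medium). Seeding 3000 cells/well for carcinoma lines, 5000 for HFF-1. IC50 by linear regression; 5-FU reference.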

[4] = Hydrolytic stability in aqueous buffer (UV/Vis); type: physicochemical; conditions: phosphate buffer/DMSO 99:1, pH 7.4, 1 × 10⁻⁴ mol dm⁻³, UV/Vis spectra over 24 h
Source text: Solvents and chemicals, including starting purines and purine bioisosters 1–5, as well as para-substituted 2-phenyloxiranes 11–15 and phenacyl bromide 21–25, were purchased from Sigma-Aldrich (St. Louis, MO, USA), Alfa Aesar (Haverhill, MA, USA), and Fisher Scientific International (Pittsburgh, PA, USA). The progress of all reactions was monitored by thin layer chromatography on pre-coated Merck (Darmstadt, Germany) silica gel plates 60F254. The synthesized compounds were purified via column chromatography using Fluka (Buchs, Switzerland) silica gel (0.063−0.2 mm) and the appropriate solvent. All NMR spectra were recorded using a Bruker 300, 400, and 600 MHz NMR spectrometer (Bruker Biospin, Rheinstetten, Germany) in deuterated DMSO solutions, with TMS as the internal standard. The melting points of all newly synthesized compounds were determined using a Koffler (Reichert, Vienna) hot stage microscope. The ^1H (δ/ppm) and ^13C NMR (δ/ppm) spectra of compounds 26a,b–49a,b can be found in the Supporting Information (Figures S1–S48). The purity of all newly synthesized compounds was determined by elemental analysis and the elemental analysis results are within 0.5% of the theoretical values. The UV/Vis absorption spectra of compounds 40a, 45a, and 49b were measured at a concentration of 1 × 10⁻⁴ mol dm⁻³ in phosphate buffer and DMSO (99:1, v/v) at pH 7.4 using a Varian Cary 50 spectrophotometer in double-beam mode at 25 °C.
Selected 6-chloropurine (40a), 4-chloropyrrolo[2,3-d]pyrimidine (45a), and 4-chloroimidazo[4,5-c]pyridine (49b) with significant antiproliferative activity were examined for hydrolytic stability in an aqueous buffer solution.
2. UV/Vis absorption spectra of selected compounds
Figure S49. UV/Vis absorption spectra of compounds 40a (a), 45a (b), and 49b (c) recorded in phosphate buffer with 1% DMSO (99:1, v/v) at pH 7.4 (c = 1 × 10⁻⁴ mol dm⁻³). Spectra were measured immediately after sample preparation and after 24 hours to evaluate spectral stability over time.
(1 picture or pasted object on this page, not shown here)

[5] = test system: colorectal carcinoma (HT-29) cells; assay: Antiproliferative MTT assay, HT-29; type: cell-based, human
How it was run: as §1

[6] = test system: P-glycoprotein (human MDR1); assay: MDCKII-MDR1 permeability assay; type: in vitro ADME, canine cells with over-expressed human MDR1 gene; conditions: dog, MDCK-MDR1
How it was run: (§2)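 Bidirectional transport across MDCKII cells overexpressing human MDR1, compounds 10 µM (1% DMSO) for 60 min at 37 °C, with and without 2 µM elacridar. Monolayer integrity checked by Lucifer yellow; compound concentrations quantified by LC-MS/MS (MRM).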

[7] = test system: MDCKII-MDR1 cells (P-glycoprotein); assay: MDCKII-MDR1 permeability assay; type: in vitro ADME, canine cells with over-expressed human MDR1 gene; conditions: permeability class
How it was run: as §2

[8] = test system: normal skin fibroblasts (HFF-1); assay: Cytotoxicity MTT assay, normal skin fibroblasts; type: cell-based, human; conditions: Homo sapiens, HFF-1, 72 h, 72 h incubation, mean ± SD
How it was run: as §1

[9] = test system: hepatocellular carcinoma (HepG2) cells; assay: Antiproliferative MTT assay, HepG2; type: cell-based, human; conditions: SI = [IC50 HFF]/[IC50 HepG2]
How it was run: as §1

IC50 [3]	hydrolytic stability [4]	IC50 ([5]; Homo sapiens, HT-29, 72 h, 72 h incubation, MTT, mean ± SD)	Papp A→B at 60 min, 10 µM ([6]; 10 µM, 60 min, 37 °C)	Papp B→A at 60 min, 10 µM ([6]; 10 µM, 60 min, 37 °C)	efflux ratio at 60 min, 10 µM ([6]; <2 no efflux, >2 active efflux)	Permeability [7]	Structure (SMILES)	IC50 [1]	antiproliferative activity (in words) [2]	SI (HT-29) ([5]; SI = [IC50 HFF]/[IC50 HT-29])	IC50 [8]	SI (HepG2) [9]
							FC(F)(F)c1ccc(-n2cc(Cn3cnc4c(Cl)ncnc43)nn2)cc1	750 nM				
19 ± 4.3 µM	hydrolytically stable	690 ± 10 nM	2.1 ×10⁻⁶ cm/s	60.6 ×10⁻⁶ cm/s	29.5	MODERATE	OCC(c1ccc(C(F)(F)F)cc1)n1cc(Cn2cnc3c(Cl)ncnc32)nn1 (stereo not drawn) [Compound 40a, 6-Chloro-9-((1-(2-hydroxy-1-(4-(trifluoromethyl)phenyl)ethyl)-1H-1,2,3-triazol-4-yl)methyl)-9H-purine]		submicromolar antiproliferative activity	26.1	18 ± 0.6 µM	28.1
